Active and inactive are the calls of the source. No cut-off for these calls is given here.
Key:
HepG2 [1] = test: Induction of apoptosis in human HepG2 cells assessed as early apoptotic cells incubated at 0.097 uM for 72 hrs by annexin V-FITC based propidium iodide dual staining assay (reference value: 1.74%); type: functional
MCF7 [2] = test: Induction of apoptosis in human MCF7 cells assessed as total apoptotic cells incubated at 0.097 uM for 72 hrs by annexin V-FITC based propidium iodide dual staining assay (reference value: 0.04 %); type: functional
MCF7 [3] = test: Anticancer activity against human MCF7 cells assessed as absence of normal spindle shape incubated at 0.097uM for 72 hrs by phase contrast inverted microscopic analysis; type: functional, cell-based
HepG2 [4] = test: Induction of apoptosis in human HepG2 cells assessed as necrotic cells incubated at 0.097 uM for 72 hrs by annexin V-FITC based propidium iodide dual staining assay (reference value: 0.33%); type: functional
HepG2 [5] = test: Induction of apoptosis in human HepG2 cells assessed as early apoptotic cells by measuring bright green patch incubated at 0.097 uM for 72 hrs by acridine orange-ethidium bromide dual staining based fluorescence microscopic analysis; type: functional, cell-based
Caco-2 [6] = test: Induction of apoptosis in human Caco-2 cells assessed as caspase3/7 activation at 0.097 uM using caspase-glo 3/7 as substrate relative to control; type: functional
MCF7 [7] = test: Induction of apoptosis in human MCF7 cells assessed as necrotic cells incubated at 0.097 uM for 72 hrs by annexin V-FITC based propidium iodide dual staining assay (reference value: 0.03%); type: functional
HeLa [8] = test: Induction of apoptosis in human HeLa cells assessed as total apoptotic cells incubated at 0.097 uM for 72 hrs by annexin V-FITC based propidium iodide dual staining assay (reference value: 0 +/- 0.035%); type: functional
HepG2 [9] = test: Anticancer activity against human HepG2 cells assessed as absence of normal spindle shape incubated at 0.097uM for 72 hrs by phase contrast inverted microscopic analysis; type: functional, cell-based
MCF7 [10] = test: Induction of apoptosis in human MCF7 cells assessed as viable cells incubated at 0.097 uM for 72 hrs by annexin V-FITC based propidium iodide dual staining assay (reference value: 99.9%); type: functional; settings: read-out: Activity
Caco-2 [11] = test: Induction of apoptosis in human Caco-2 cells assessed as late apoptotic cells incubated at 0.097 uM for 72 hrs by annexin V-FITC based propidium iodide dual staining assay (reference value: 0.02%); type: functional
MCF7 [12] = test: Induction of apoptosis in human MCF7 cells assessed as late apoptotic cells incubated at 0.11 uM for 72 hrs by annexin V-FITC based propidium iodide dual staining assay (reference value: 0.01%); type: functional
HeLa [13] = test: Induction of oxidative stress in human HeLa cells assessed as cell death by measuring redox alteration fluorescence incubated at 0.098 uM for 72 hrs in presence of dihydro dichlorofluorescein diacetate by DCFH-DA based flow cytometric analysis relative to control; type: functional
Caco-2 [14] = test: Induction of oxidative stress in human Caco-2 cells assessed as cell death by measuring redox alteration fluorescence incubated at 0.11 uM for 72 hrs in presence of dihydro dichlorofluorescein diacetate by DCFH-DA based flow cytometric analysis relative to control; type: functional
MCF7 [15] = test: Anticancer activity against human MCF7 cells assessed as round cells incubated at 0.11 uM for 72 hrs by phase contrast inverted microscopic analysis; type: functional, cell-based
dsDNA [16] = test: Induction of damage in dsDNA (unknown origin) assessed as DNA disruption by measuring fluorescence intensity at 100 uM incubated for 2.5 hrs by EvaGreen based fluorescence plate reader analysis; type: nucleic-acid assay
Caco-2 [17] = test: Anticancer activity against human Caco-2 cells assessed as absence of normal spindle shape incubated at 0.11 uM for 72 hrs by phase contrast inverted microscopic analysis; type: functional, cell-based
HepG2 [18] = test: Anticancer activity against human HepG2 cells assessed as losing contact with neighbouring cells incubated at 0.11 uM for 72 hrs by phase contrast inverted microscopic analysis; type: functional, cell-based
HepG2 [19] = test: Induction of apoptosis in human HepG2 cells assessed as pro-oxidant effect by measuring free radical generation measured at 0.11 uM after 72 hrs; type: functional, cell-based
Caco-2 [20] = test: Induction of apoptosis in human Caco-2 cells assessed as necrotic cells incubated at 0.11 uM for 72 hrs by annexin V-FITC based propidium iodide dual staining assay (reference value: 0.02%); type: functional
Caco-2 [21] = test: Anticancer activity against human Caco-2 cells incubated for 24 hrs by MTT assay; type: functional, cell-based; settings: Caco-2, 24 h
dsDNA [22] = test: Induction of damage in dsDNA (unknown origin) assessed as disrupted by DNA by measuring decrease in fluorescence intensity at 100 uM incubated for 50 mins by EvaGreen based fluorescence plate reader analysis; type: nucleic-acid assay
HepG2 [23] = test: Induction of apoptosis in human HepG2 cells assessed as early apoptotic cells by measuring bright green patch incubated at 0.11 uM for 72 hrs by acridine orange-ethidium bromide dual staining based fluorescence microscopic analysis; type: functional, cell-based
HepG2 [24] = test: Anticancer activity against human HepG2 cells assessed as cell shrinkage incubated at 0.11 uM for 72 hrs by phase contrast inverted microscopic analysis; type: functional, cell-based
MCF7 [25] = test: Induction of apoptosis in human MCF7 cells assessed as viable cells incubated at 0.017 uM for 72 hrs by annexin V-FITC based propidium iodide dual staining assay (reference value: 99.9%); type: functional; settings: read-out: Activity
HepG2 [26] = test: Induction of oxidative stress in human HepG2 cells assessed as cell death by measuring redox alteration fluorescence incubated at 0.017 uM for 72 hrs in presence of dihydro dichlorofluorescein diacetate by DCFH-DA based flow cytometric analysis relative to control; type: functional
Caco-2 [27] = test: Induction of apoptosis in human Caco-2 cells assessed as total apoptotic cells incubated at 0.017 uM for 72 hrs by annexin V-FITC based propidium iodide dual staining assay (reference value: 0.04 +/- 0.005%); type: functional
MCF7 [28] = test: Induction of apoptosis in human MCF7 cells assessed as viable cells by measuring green uniform patch incubated at 0.017 uM for 72 hrs by acridine orange-ethidium bromide dual staining based fluorescence microscopic analysis; type: functional, cell-based
Caco-2 [29] = test: Induction of apoptosis in human Caco-2 cells assessed as caspase3/7 activation at 0.017 uM using caspase-glo 3/7 as substrate relative to control; type: functional
HeLa [30] = test: Anticancer activity against human HeLa cells assessed as losing contact with neighbouring cells incubated at 0.098uM for 72 hrs by phase contrast inverted microscopic analysis; type: functional, cell-based
HepG2 [31] = test: Induction of apoptosis in human HepG2 cells assessed as necrotic cells incubated at 0.098 uM for 72 hrs by annexin V-FITC based propidium iodide dual staining assay (reference value: 0.33%); type: functional
HepG2 [32] = test: Anticancer activity against human HepG2 cells assessed as absence of normal spindle shape incubated at 0.098uM for 72 hrs by phase contrast inverted microscopic analysis; type: functional, cell-based
HeLa [33] = test: Induction of apoptosis in human HeLa cells assessed as caspase3/7 activation at 0.098 uM using caspase-glo 3/7 as substrate relative to control; type: functional
Caco-2 [34] = test: Induction of apoptosis in human Caco-2 cells assessed as late apoptotic cells incubated at 0.098 uM for 72 hrs by annexin V-FITC based propidium iodide dual staining assay (reference value: 0.02%); type: functional
HeLa [35] = test: Induction of apoptosis in human HeLa cells assessed as early apoptotic cells incubated at 0.098 uM for 72 hrs by annexin V-FITC based propidium iodide dual staining assay (reference value: 2.77%); type: functional

NS(=O)(=O)c1ccc(-n2cc(CN3C(=O)CN(/N=C/c4ccc([N+](=O)[O-])o4)C3=O)nn2)cc1
Activity (HepG2 [1]): 21.02% | Activity (MCF7 [2]): 64.08% | Activity (MCF7 [3]): Active | Activity (HepG2 [4]): 0% | Activity (HepG2 [5]): Active | Activity (Caco-2 [6]): 58% | Activity (MCF7 [7]): 0.6% | Activity (HeLa [8]): 39.42% | Activity (HepG2 [9]): Active | viability at 0.097 µM (MCF7 [10]): 31.1% | Activity (Caco-2 [11]): 22.46%

C#CCN1C(=O)CN(/N=C/c2ccc([N+](=O)[O-])o2)C1=O
Activity (MCF7 [12]): 34.7% | Activity (HeLa [13]): 30.75% | Activity (Caco-2 [14]): 45.56% | Activity (MCF7 [15]): Active | Activity (dsDNA [16]): 27.2 | Activity (Caco-2 [17]): Active | Activity (HepG2 [18]): Active | Activity (HepG2 [19]): Active | Activity (Caco-2 [20]): 0.57% | IC50 (Caco-2 [21]): 89 µM | Activity (dsDNA [22]): Active | Activity (HepG2 [23]): Active | Activity (HepG2 [24]): Active

O=c1[nH]cc(F)c(=O)[nH]1 [FLUOROURACIL]
viability at 0.017 µM (MCF7 [25]): 90.9% | Activity (HepG2 [26]): 4.78% | Activity (Caco-2 [27]): 3.68% | Activity (MCF7 [28]): Active | Activity (Caco-2 [29]): 12%

O=C(CN1C(=O)CN(/N=C/c2ccc([N+](=O)[O-])o2)C1=O)c1ccc(Cl)cc1
Activity (HeLa [30]): Active | Activity (HepG2 [31]): 3.85% | Activity (HepG2 [32]): Active | Activity (HeLa [33]): 75% | Activity (Caco-2 [34]): 27.58% | Activity (HeLa [35]): 6.1%
